Common to all, as to assay type: cell-based
For one assay, the system named is MOLM-13 cells. The assay can be described thus: Cell growth inhibition, AML cell line MOLM-13 (CyQuant, day 7). The conditions noted are these: Homo sapiens, 168 h; MOLM-13, day 7, CyQuant; read-out: MOLM13 GI50. From the text: Among other things, provided technologies are useful for treating various diseases, disorders, or conditions. For example, in some embodiments, provided technologies are useful for treating cancer as confirmed in the present Example. […] In some embodiments, provided technologies can inhibit cell proliferation. In some embodiments, the present disclosure provides technologies for assessing various technologies, e.g., compounds, compositions, or methods. Among other things, the present Example provides technologies, e.g., cell growth inhibition assay, for assessing various technologies. […] In some embodiments, the following cell growth inhibition methods are utilized to assess provided technologies.
AML: AML cell line MOLM-13 cells were cultured in RPMI+15% FBS and were plated at 500 cells/well in 100 uL media in a U-bottom 96-well plate. Compounds were dilute to 3×final in full media and 50 uL were added to corresponding wells. Compound and media were replenished on days 2 and 5. On day 7, cells were transferred to a 96-well black bottom plate and CyQuant was performed per manufacturer's instructions.
In some assessments, for cell growth inhibition, cells, e.g., MOLM13, NCI-H1048, and LASCPC-01 cells, were counted using a hemocytometer or automated cell counting in triplicates. In some assessments, proliferation in NEPC organoids as measured with Cell Titer Glo reagent (Promega). Growth inhibition was determined relative to vehicle control.

A further assay deals with KAT2B (Homo sapiens, UniProt Q92831). The assay can be described thus: KAT2B degradation, Western Blot (Jess), NCI-H1048 cells. Details: degrader, Western blot (Jess). Particulars: NCI-H1048 cells, KAT2B, 24 h, Western Blot, vs DMSO; read-out: KAT2B NCI-H1048 DC50. A digest of the protocol:
(§1)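 NCI-H1048 cells grown in HITES medium with 5% FBS were treated with compounds for 24 h at 37° C. Lysates were run by capillary Western (Jess) with KAT2A or KAT2B antibodies and chemiluminescent detection. DC50 derived from percent protein reduction versus DMSO control.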
On the technique in general: In western blotting, separated proteins are transferred to a membrane and probed.

The target in assay [1] is T1, KAT2A (Homo sapiens, UniProt Q92830). The assay can be described thus: KAT2A degradation, Western Blot (Jess), NCI-H1048 cells. The conditions noted are these: NCI-H1048 cells, KAT2A, 24 h, Western Blot, vs DMSO; read-out: KAT2A NCI-H1048 DC50. Details: degrader, Western blot (Jess). In a few lines:
as §1

Assay [2] has as its target T1, KAT2A. The assay can be described thus: KAT2A degradation, Western Blot (Jess), MOLM-13 cells. The conditions noted are these: MOLM-13 cells, KAT2A, 24 h, Western Blot, vs DMSO; read-out: KAT2A MOLM-13 DC50. More on the design: degrader, Western blot. A digest of the protocol:
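MOLM-13 cells in RPMI 1640/20% FBS were treated with compound for 24 h at 37 °C. RIPA lysates (4 μg) were run on a capillary Western (Jess) with anti-KAT2A antibody and chemiluminescent detection. DC50 comes from percent protein reduction versus DMSO control.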

Where only a bound is given, the exact number is not on record here.

Chain of KAT2B (Q92831 whole entry): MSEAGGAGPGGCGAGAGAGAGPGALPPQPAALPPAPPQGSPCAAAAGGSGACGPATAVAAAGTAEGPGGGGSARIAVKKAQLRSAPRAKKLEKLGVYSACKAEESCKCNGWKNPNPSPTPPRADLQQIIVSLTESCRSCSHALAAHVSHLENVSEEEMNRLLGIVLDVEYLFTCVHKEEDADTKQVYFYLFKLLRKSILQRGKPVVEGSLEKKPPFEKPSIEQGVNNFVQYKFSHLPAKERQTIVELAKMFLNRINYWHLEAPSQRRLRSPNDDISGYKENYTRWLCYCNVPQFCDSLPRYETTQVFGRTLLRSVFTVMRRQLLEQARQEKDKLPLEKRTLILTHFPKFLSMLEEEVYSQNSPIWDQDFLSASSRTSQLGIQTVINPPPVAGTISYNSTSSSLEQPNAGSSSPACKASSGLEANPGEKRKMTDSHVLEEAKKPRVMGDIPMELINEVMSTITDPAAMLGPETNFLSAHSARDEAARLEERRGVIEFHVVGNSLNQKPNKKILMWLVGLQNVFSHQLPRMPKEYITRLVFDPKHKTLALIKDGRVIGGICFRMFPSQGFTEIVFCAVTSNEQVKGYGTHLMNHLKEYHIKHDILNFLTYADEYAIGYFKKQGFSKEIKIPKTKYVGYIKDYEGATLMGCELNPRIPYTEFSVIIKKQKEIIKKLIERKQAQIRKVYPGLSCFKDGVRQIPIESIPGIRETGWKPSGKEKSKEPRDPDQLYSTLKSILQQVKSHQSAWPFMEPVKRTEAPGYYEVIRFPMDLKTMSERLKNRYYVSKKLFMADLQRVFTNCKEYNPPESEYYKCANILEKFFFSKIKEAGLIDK
T1 sequence (Q92830 whole entry): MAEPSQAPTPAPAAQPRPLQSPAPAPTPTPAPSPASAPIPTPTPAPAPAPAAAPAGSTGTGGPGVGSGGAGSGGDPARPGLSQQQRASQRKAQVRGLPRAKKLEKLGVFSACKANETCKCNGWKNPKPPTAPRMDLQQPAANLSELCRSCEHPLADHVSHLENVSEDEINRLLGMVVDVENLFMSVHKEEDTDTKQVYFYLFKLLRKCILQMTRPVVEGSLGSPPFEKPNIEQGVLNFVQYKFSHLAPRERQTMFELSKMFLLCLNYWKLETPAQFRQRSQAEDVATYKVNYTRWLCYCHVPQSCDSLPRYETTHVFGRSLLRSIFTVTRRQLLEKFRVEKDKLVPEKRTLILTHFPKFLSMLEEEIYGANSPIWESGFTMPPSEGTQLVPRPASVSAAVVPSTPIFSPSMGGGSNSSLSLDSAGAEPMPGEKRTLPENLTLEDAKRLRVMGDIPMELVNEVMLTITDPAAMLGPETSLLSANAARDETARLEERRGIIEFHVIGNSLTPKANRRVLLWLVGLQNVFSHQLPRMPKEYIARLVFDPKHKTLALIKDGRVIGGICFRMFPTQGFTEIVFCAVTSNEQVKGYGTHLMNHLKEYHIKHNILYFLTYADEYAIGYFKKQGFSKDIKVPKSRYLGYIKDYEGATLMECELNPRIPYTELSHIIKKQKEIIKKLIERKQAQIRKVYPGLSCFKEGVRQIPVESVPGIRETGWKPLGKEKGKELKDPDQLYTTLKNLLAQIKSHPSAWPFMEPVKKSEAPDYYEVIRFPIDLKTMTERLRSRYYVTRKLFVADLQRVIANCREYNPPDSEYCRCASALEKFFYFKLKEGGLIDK

The GI50 is the concentration at which growth is held to half of that of the control. As a reminder, the DC50 is the midpoint of the concentration-degradation curve. As to `CN1C[C@H](Nc2cnn(C)c(=O)c2Br)C[C@H](c2ccc(C(=O)N3CCC4(CC3)CCN(c3ccc(C5CCC(=O)NC5=O)cc3)CC4)cc2)C1` (single isomer, unassigned) [Compound 240], the GI50 in the assay with MOLM-13 cells is 3.9 nM. The DC50 at KAT2B and on KAT2A [1] was less than 1 nM throughout.

For the compound `CN1C[C@H](Nc2cnn(C)c(=O)c2Cl)C[C@H](c2ccc(C(=O)N3CCC4(CC3)CCN(c3ccc(C5CCC(=O)NC5=O)cn3)CC4)cc2)C1` (some centres unmarked) [Compound 2-52], the GI50 with MOLM-13 cells is 0.4 nM. For the same compound, the DC50 on KAT2B and on KAT2A [1] was less than 1 nM in each case.

For the compound `CN1C[C@H](Nc2cnn(C)c(=O)c2Br)C[C@H](c2ccc(COc3ccc4c(c3)C(=O)N(C3CCC(=O)NC3=O)C4=O)cc2)C1` (some centres unmarked) [Compound 39], in the assay with MOLM-13 cells, the GI50 was 5.6 nM. Besides, the DC50 on KAT2B is 1 to 30 nM; on KAT2A [2], less than 1 nM; on KAT2A [1] it was less than 1 nM.

Consider `CN1C[C@H](Nc2cnn(C)c(=O)c2Br)C[C@H](c2ccc(C(=O)N3CCC(CN4CCN(c5ccc6c(c5)C(=O)N(C5CCC(=O)NC5=O)C6=O)CC4)CC3)cc2)C1` (some centres unmarked) [Compound 40], for which the GI50 in the assay with MOLM-13 cells was 7.8 nM. The DC50 at KAT2A [2] was less than 1 nM.

As for `CN1C[C@H](Nc2cnn(C)c(=O)c2Br)C[C@H](c2ccc(CN3CCN(c4cccc([C@H]5CCC(=O)NC5=O)c4)CC3)cc2)C1` [Compound 84, 3-[3-[4-[[4-[(3R,5R)-5-[(5-bromo-1-methyl-6-oxo-pyridazin-4-yl)amino]-1-methyl-3-piperidyl]phenyl]methyl]piperazin-1-yl]phenyl]piperidine-2,6-dione], the GI50 in the assay with MOLM-13 cells worked out at 1.1 nM. Besides, the DC50 on KAT2B was 1 to 30 nM; at KAT2A [2], less than 1 nM; at KAT2A [1], less than 1 nM.

Take `CN1C[C@H](Nc2cnn(C)c(=O)c2Cl)C[C@H](c2ccc(C(=O)N3CCC4(CC3)CCN(c3ccc(C5CCC(=O)NC5=O)cc3)CC4)cc2)C1` (stereo partly drawn) [Compound 145, 3-[4-[3-[4-[(3R,5R)-5-[(5-chloro-1-methyl-6-oxo-pyridazin-4-yl)amino]-1-methyl-3-piperidyl]benzoyl]-3,9-diazaspiro[5.5]undecan-9-yl]phenyl]piperidine-2,6-dione]: the GI50 in the assay on MOLM-13 cells stood at 1 nM. In addition, the DC50 at KAT2B, on KAT2A [2] and on KAT2A [1] was less than 1 nM each time.

Regarding `CN1C[C@H](Nc2cnn(C)c(=O)c2Br)C[C@H](c2ccc(C(=O)N3CCC4(CC3)CCN(c3ccc(C5CCC(=O)NC5=O)cc3F)CC4)cc2)C1` (some centres unmarked) [Compound 146], the GI50 in the assay with MOLM-13 cells was found to be 5.9 nM. The DC50 at KAT2B, on KAT2A [2] and at KAT2A [1] was less than 1 nM each time.

Take `CN1C[C@H](Nc2cnn(C)c(=O)c2Br)C[C@H](c2ccc(C(=O)N3CCC4(CC3)CCN(c3ccc(C5CCC(=O)NC5=O)c(F)c3)CC4)cc2)C1` (stereo partly drawn) [Compound 157, 3-[4-[3-[4-[(3R,5R)-5-[(5-bromo-1-methyl-6-oxo-pyridazin-4-yl)amino]-1-methyl-3-piperidyl]benzoyl]-3,9-diazaspiro[5.5]undecan-9-yl]-2-fluoro-phenyl]piperidine-2,6-dione]: the GI50 in the assay on MOLM-13 cells turned out to be 0.9 nM. In addition, the DC50 on KAT2B, at KAT2A [2] and on KAT2A [1] was less than 1 nM each time.

Turning to `Cc1c(N[C@@H]2C[C@H](c3ccc(CN4CCC(Oc5ccc(C6CCC(=O)NC6=O)cc5)CC4)cc3)CN(C)C2)cnn(C)c1=O` (some centres unmarked) [Compound 188], the results for the DC50 on KAT2B, on KAT2A [2] and at KAT2A [1] were more than 30 nM, less than 1 nM and less than 1 nM, respectively.

Take `CN1C[C@H](Nc2cnn(C)c(=O)c2Cl)C[C@H](c2ccc(C(=O)N3CCC4(CC3)CCN(c3ccc5c(C6CCC(=O)NC6=O)nn(C)c5c3)CC4)cc2)C1` (stereo partly drawn) [Compound 208, 3-[6-[3-[4-[(3R,5R)-5-[(5-chloro-1-methyl-6-oxo-pyridazin-4-yl)amino]-1-methyl-3-piperidyl]benzoyl]-3,9-diazaspiro[5.5]undecan-9-yl]-1-methyl-indazol-3-yl]piperidine-2,6-dione]: in the assay on MOLM-13 cells, the GI50 turned out to be 0.3 nM. Further, the DC50 at KAT2B and on KAT2A [1] was less than 1 nM throughout.

Regarding `Cc1cc(N2CCC3(CCN(C(=O)c4ccc([C@H]5C[C@@H](Nc6cnn(C)c(=O)c6C)CN(C)C5)cc4)CC3)CC2)ccc1C1CCC(=O)NC1=O` (some centres unmarked) [Compound 219], the GI50 in the assay with MOLM-13 cells is 5.9 nM. The DC50 on KAT2B and on KAT2A [1] was less than 1 nM throughout.

Regarding `Cc1cc(N2CCC3(CCN(C(=O)c4ccc([C@H]5C[C@@H](Nc6cnn(C)c(=O)c6Cl)CN(C)C5)cc4)CC3)CC2)ccc1C1CCC(=O)NC1=O` (some centres unmarked) [Compound 223], in the assay on MOLM-13 cells, the GI50 was 4.4 nM. The half-maximal degradation concentration (DC50) at KAT2B and on KAT2A [1] was less than 1 nM each time.

Regarding `CN1C[C@H](Nc2cnn(C)c(=O)c2Cl)C[C@H](c2ccc(C(=O)N3CCC4(CC3)CCN(c3ccc(C5CCC(=O)NC5=O)c(F)c3)CC4)cc2)C1` (stereo partly drawn) [Compound 228, 3-[4-[3-[4-[(3R,5R)-5-[(5-chloro-1-methyl-6-oxo-pyridazin-4-yl)amino]-1-methyl-3-piperidyl]benzoyl]-3,9-diazaspiro[5.5]undecan-9-yl]-2-fluoro-phenyl]piperidine-2,6-dione], in the assay on MOLM-13 cells, the GI50 worked out at 0.9 nM. Also, the DC50 on KAT2B and on KAT2A [1] was less than 1 nM in each case.

For the compound `Cc1c(N[C@@H]2C[C@H](c3ccc(C(=O)N4CCC5(CC4)CCN(c4ccc(C6CCC(=O)NC6=O)c(F)c4)CC5)cc3)CN(C)C2)cnn(C)c1=O` (stereo partly drawn) [Compound 229, 3-[4-[3-[4-[(3R,5R)-5-[(1,5-dimethyl-6-oxo-pyridazin-4-yl)amino]-1-methyl-3-piperidyl]benzoyl]-3,9-diazaspiro[5.5]undecan-9-yl]-2-fluoro-phenyl]piperidine-2,6-dione], the GI50 in the assay with MOLM-13 cells stood at 0.7 nM. The half-maximal degradation concentration (DC50) at KAT2B and on KAT2A [1] was less than 1 nM throughout.

As to `CN1C[C@H](Nc2cnn(C)c(=O)c2Cl)C[C@H](c2ccc(C(=O)N3CCC4(CCC(c5ccc(C6CCC(=O)NC6=O)cc5F)CC4)CC3)cc2)C1` (some centres unmarked) [Compound 231], the GI50 in the assay with MOLM-13 cells came out at 7.3 nM. Moreover, the DC50 at KAT2B is 1 to 30 nM; on KAT2A [1] it was less than 1 nM.

With `COc1cc(N2CCC3(CCN(C(=O)c4ccc([C@H]5C[C@@H](Nc6cnn(C)c(=O)c6Cl)CN(C)C5)cc4)CC3)CC2)ccc1C1CCC(=O)NC1=O` (some centres unmarked) [Compound 232], in the assay with MOLM-13 cells, the GI50 was 5.2 nM. For the same compound, the DC50 was 1 to 30 nM on KAT2B and less than 1 nM on KAT2A [1].

With `CN1C[C@H](Nc2cnn(C)c(=O)c2Cl)C[C@H](c2ccc(C(=O)N3CCC4(CC3)CCN(c3ccc(C5CCC(=O)NC5=O)nc3)CC4)cc2)C1` (some centres unmarked) [Compound 233], in the assay on MOLM-13 cells, the GI50 was found to be 5.5 nM. Further, the 50% degradation concentration (DC50) was 1 to 30 nM on KAT2B and less than 1 nM on KAT2A [1].

On to `Cc1cc(N2CCC3(CCN(C(=O)c4ccc([C@H]5C[C@@H](Nc6cnn(C)c(=O)c6Cl)CN(C)C5)cc4)CC3)CC2)c(F)cc1C1CCC(=O)NC1=O` (some centres unmarked) [Compound 242], for which, in the assay on MOLM-13 cells, the GI50 is more than 100 nM. The 50% degradation concentration (DC50) on KAT2B was more than 30 nM; on KAT2A [1], 1 to 30 nM.

As for `Cc1cc(N2CCC3(CCN(C(=O)c4ccc([C@H]5C[C@@H](Nc6cnn(C)c(=O)c6Br)CN(C)C5)cc4)CC3)CC2)c(F)cc1C1CCC(=O)NC1=O` (some centres unmarked) [Compound 243], the GI50 with MOLM-13 cells is more than 100 nM. Besides, the DC50 at KAT2B is more than 30 nM; on KAT2A [1], 1 to 30 nM.

Regarding `Cc1cc(C2CCC(=O)NC2=O)ccc1N1CCC2(CCN(C(=O)c3ccc([C@H]4C[C@@H](Nc5cnn(C)c(=O)c5Cl)CN(C)C4)cc3)CC2)CC1` (some centres unmarked) [Compound 250], the GI50 in the assay with MOLM-13 cells amounted to 3.7 nM. The DC50 at KAT2B and on KAT2A [1] was less than 1 nM in each case.

As for `CN1C[C@H](Nc2cnn(C)c(=O)c2Cl)C[C@H](c2ccc(C(=O)N3CCC4(CC3)CCN(c3ccc(OC5CCC(=O)NC5=O)cc3)CC4)cc2)C1` (some centres unmarked) [Compound 362], the GI50 in the assay with MOLM-13 cells amounted to 33.3 nM. In addition, the DC50 was 1 to 30 nM at KAT2B and less than 1 nM at KAT2A [1].

Take `CN1C[C@H](Nc2cnn(C)c(=O)c2Br)C[C@H](c2ccc(C(=O)N3CCC4(CC3)CCN(c3ccc(OC5CCC(=O)NC5=O)cc3)CC4)cc2)C1` (some centres unmarked) [Compound 363]: in the assay on MOLM-13 cells, the GI50 was 5.7 nM. Besides, the results for the DC50 at KAT2B and on KAT2A [1] were 1 to 30 nM and less than 1 nM, respectively.

Regarding `CN1CC(Nc2cnn(C)c(=O)c2Br)CC(c2ccc(C(=O)N3CCC4(CC3)CCN(c3ccc(C5CCC(=O)NC5=O)cc3)CC4)cc2)C1` (centres unmarked) [Compound 437], in the assay on MOLM-13 cells, the GI50 amounted to 0.3 nM.

The record behind these values is patent US20260306640A1, “TECHNOLOGIES TARGETING CELL STATES” (Auron Therapeutics, Inc., priority 2023, published 2026).
